“Also recorded” adds a separate entry of the source.
What was measured:
C57BL/6 Sperm = experiment: Post-thaw motility of mouse sperm (IVOS computerized semen analysis); type: cell-based; settings: for IVF Fit: motility of at least 5% is required to achieve fertilization in IVF
Description: To determine the concentration, motility, and progressive motility of “freshly-collected” sperm, the sperm is typically diluted 1:20 in either phosphate buffered saline or Cooks Mouse Vitro Fert (Cook Australia; Queensland, Australia; (Quinn et al., 1995)). To assess thawed sperm, sperm is incubated in IVF medium for an hour, at a dilution of 1:50 in the IVF drop. It is then loaded into a Hamilton Thom IVOS computerized semen analyzer (Hamilton Thom, Beverly, Mass.). For measurement, the calibration parameters are set as follows: • Apply Sort: 2 • Frames acquired: 30 • Frame rate: 60 Hz • Minimum contrast: 30 • Minimum Cell Size: 4 pixels • Minimum Static Contrast: 15 • Straightness (STR), Threshold: 50% • Low VAP Cutoff: 10.0 μm/s • Medium VAP Cutoff: 50.0 μmis • Low VSL Cutoff: 0.0 grids • Head Size, Non-Motile: 13 pixels • Head Intensity, Non-Motile: 75 • Static Head Size: 0.57 to 2.91 • Static Head Intensity: 0.14 to 1.84 • Static Elongation: 0 to 87 • Slow Cells Motile: YES • Magnification: 0.82 • Video Source Camera • Video Frequency: 60 • Bright Field No • Brightness for LED: 2663 • Brightness for Ident: 3000 • Temperature, Set: 37° C.
If the compound is capable of reducing ROS at the tested concentration, then its effect on sperm motility and fertilization is tested. While the sperm motility assay is a helpful fast screening tool in the case of mouse, this assay is not required for mouse and one can perform only the IVF assay in the case of mouse. For other species, e.g. bovine, the sperm motility assay together with the fluorescence assay is sufficient. The sperm motility assay can be done either with fresh or cryopreserved sperm. For example, the motility can be determined as described in Example 6 (Determination of Sperm Concentration and Motility), using an IVOS instrument. Briefly, C57BL/6 sperm were diluted 1:50 in pre-warmed and gassed mouse vitro fert (Cook's; Spencer, Ind.) under light mineral oil. The samples were incubated for an hour at 37° C., in a humidified atmosphere of 5% CO2, 5% O2 and 90% nitrogen in a K-MINC-1000 bench top incubator (Cook's; Spencer, Ind.). After incubation, the sperm were drawn into 0.1×2.0 mm I.D. tubes (VitroCom Inc. Mt Lks. N.J.) using capillary action and 3 manually selected fields per sample were analyzed for motility using the Hamilton Thorn (Beverly, Mass.) integrated visual optics system (IVOS) for computerized semen analysis. Applicants have shown that sperm frozen in CPM containing no free radical scavenger, 0.477 mM MTG, 0.1 mM DTT, 1 mM DTT, 5 mM DTT, 20 mM DTT, 0.5 mM GSH, 1 mM GSH, 5 mM GSH or 50 mM GSH can be assessed for motility and that motility of at least 5% is required to achieve fertilization in IVF.

[1] = system: cryopreserved mouse sperm; experiment: In vitro fertilization with thawed cryopreserved sperm: fertilization rate (#2-cell embryos/# total oocytes); type: cell-based; settings: for effect on fertilization rate / fertility of cryopreserved C57BL/6J sperm: MTG 159 μM to 636 μM in CPM, relative to presently-available methods, FIG. 1
Description: The epididymides and vas deferentia are extracted from the C57BL/6J male and placed into the cryoprotective media described herein. […] Incisions are made in the tissues, allowing the sperm to swim out into the CPM; this is allowed for at least 5 but for less than 20 min. The residual tissues are then removed from the collection drop. Ten micro liters of the sperm sample are loaded into as many as one hundred 250 μL French straws (IMV; Maple Grove, Minn.). Two hundred and fifty microliter straws, containing a 5.5 cm column of CPM, a 2.5 cm column of air, a 0.6 cm column of sperm sample followed by a column of air, are sealed with an instantaneous heat sealer. The straws are loaded into cassettes and exposed to liquid nitrogen vapor for at least 10 min before being plunged into the liquid nitrogen. This essentially cools the sperm at 37° C./min.
Subsequent to storage in liquid nitrogen, 3 samples from each treatment are thawed in a 37° C. water bath for 30 sec, and then each 10 μL aliquot is placed directly into its own 500 μL in vitro fertilization (IVF) drop of Cooks Mouse Vitro Fert (Cook Australia; Queensland, Australia). After an hour of incubation, 4 cumulus intact oocyte clutches from superovulated C57BL/6J females are added to the in vitro fertilization drops. IVF is carried out using methods known to those of skill in the art, such as by the methods described by Nakagata. (Nakagata, 2000a; Nakagata, 2000b). The sperm and oocytes are incubated together for 4 hrs before the presumptive zygotes are removed from the IVF drop and placed in a culture drop for overnight incubation.
Approximately 18 hours later, the percentage of oocytes developing into 2-cell embryos is determined (#2-cell embryos/# total oocytes). For statistical analysis, percents are arcsine transformed and the averages of at least 3 IVF drops per treatment are evaluated with a T-Test. A difference between treatments is illustrated with an asterisk (p<0.05). For presentation, means and standard errors were converted back into percents. […]
Ten μL aliquots of sperm from a variety of mouse strains as listed in Table 7 are frozen in the CPM with 477 μM monothioglycerol as ROS(CPM). A total of at least 6 sperm samples per treatment within a strain are utilized. These represented at least 3 samples from each of at least 2 sets of 2 males whose sperm are pooled at the time of collection and then split into the two treatments. Subsequent to thawing the samples are placed directly into their own 500 μL in vitro fertilization (IVF) drop of Cooks Mouse Vitro Fert (Cook Australia; Queensland, Australia; (Quinn et al., 1995)). After an hour incubation, 4 cumulus intact oocyte clutches from isogenic strains were added to the incubation medium. Following a 4 hr co-incubation, the presumptive zygotes were washed and cultured overnight. Approximately 18 hours later, the fertilization rate was determined (% 2 cell: #2-cell embryos/# total oocytes, see Table 7). The average percentage was determined. For each line, about 30 2-cell embryos were implanted into receptive females. After approximately 21 days, the number of live born mice was determined, shown as % Live born in Table 7.
To determine if storage of the cryoprotective media at −80° C. altered the activity of the C57BL/6J mouse sperm., in vitro fertilizations (IVF) were preformed as described previously (see Example 1, also see publications by Nakagata, 2000a; Nakagata, 2000b, Sztein et al. 2000; Byers et al. 2006). Briefly the sperm and oocytes, both from C57BL/6J mice, were incubated together for 4 hrs in a benchtop incubator at 37° C. After 4 hrs of co-incubation the presumptive zygotes were washed through two 150 μL drops of IVF media (MVF; Cook's; Spencer, Ind.) and then cultured overnight. Approximately 18 hrs later, the proportion of oocytes fertilized was calculated by dividing the number of two-cell embryos by the sum of two-cells and normally appearing presumptive one-cell oocytes. […]

[2] = C57BL/6 sperm frozen in CPM containing 1 mM free radical scavenger
[3] = C57BL/6 sperm frozen in CPM containing 5 mM free radical scavenger
[4] = C57BL/6 sperm cryopreserved in CPM containing 1 mM free radical scavenger
[5] = C57BL/6 sperm cryopreserved in CPM containing 5 mM free radical scavenger

O[C@H](CS)[C@H](O)CS (racemic) [DTT, dithiothreitol]
IVF Fit (C57BL/6 Sperm; 0.1 mM): yes | IVF Fit (C57BL/6 Sperm; 1 mM): yes | IVF Fit (C57BL/6 Sperm; 5 mM): yes | IVF Fit (C57BL/6 Sperm; 20 mM): no | Average Post Thaw Motility (C57BL/6 Sperm; C57BL/6 sperm frozen in CPM containing 0.1 mM free radical scavenger): 24.6% | Average Post Thaw Motility (C57BL/6 Sperm; [2]): 34% | Average Post Thaw Motility (C57BL/6 Sperm; [3]): 17.6% | Average Post Thaw Motility (C57BL/6 Sperm; C57BL/6 sperm frozen in CPM containing 20 mM free radical scavenger): 1.6% | Fertilization Rate (2-cell embryos of total oocytes) ([1]; C57BL/6 sperm cryopreserved in CPM containing 0.1 mM free radical scavenger): 19.2% | Fertilization Rate (2-cell embryos of total oocytes) [1, 4]: 2% | Fertilization Rate (2-cell embryos of total oocytes) [1, 5]: 0.9% | Fertilization Rate (2-cell embryos of total oocytes) ([1]; C57BL/6 sperm cryopreserved in CPM containing 20 mM free radical scavenger): 6.4%

N[C@@H](CCC(=O)N[C@@H](CS)C(=O)NCC(=O)O)C(=O)O [GSH, reduced glutathione]
IVF Fit (C57BL/6 Sperm; 0.5 mM): yes | IVF Fit (C57BL/6 Sperm; 1 mM): yes | IVF Fit (C57BL/6 Sperm; 5 mM): yes | IVF Fit (C57BL/6 Sperm; 50 mM): no | Average Post Thaw Motility (C57BL/6 Sperm; C57BL/6 sperm frozen in CPM containing 0.5 mM free radical scavenger): 32% | Average Post Thaw Motility (C57BL/6 Sperm; [2]): 25.3% | Average Post Thaw Motility (C57BL/6 Sperm; [3]): 41.67% | Average Post Thaw Motility (C57BL/6 Sperm; C57BL/6 sperm frozen in CPM containing 50 mM free radical scavenger): 0.6% | Fertilization Rate (2-cell embryos of total oocytes) ([1]; C57BL/6 sperm cryopreserved in CPM containing 0.5 mM free radical scavenger): 59.7% | Fertilization Rate (2-cell embryos of total oocytes) [1, 4]: 49.5% | Fertilization Rate (2-cell embryos of total oocytes) [1, 5]: 39.9% | Fertilization Rate (2-cell embryos of total oocytes) ([1]; C57BL/6 sperm cryopreserved in CPM containing 50 mM free radical scavenger): 0.0% | effect on fertilization rates / fertility of cryopreserved C57BL/6J sperm ([1]; GSH 500 μM to 5 mM in CPM, compared to CPM without a reducing agent, FIG. 2): increase the fertilization rates; also recorded: enhances the fertility

OCC(O)CS (stereo not shown) [MTG, monothioglycerol]
IVF Fit (C57BL/6 Sperm; 0.477 mM): yes | Average Post Thaw Motility (C57BL/6 Sperm; C57BL/6 sperm frozen in CPM containing 0.477 mM free radical scavenger): 16% | MTG concentration that provided the best results (fertilization rate) ([1]; C57BL/6J sperm, MTG tested from 159 μM to 636 μM): 477 µM | Fertilization Rate (2-cell embryos of total oocytes) ([1]; C57BL/6 sperm cryopreserved in CPM containing 0.477 mM free radical scavenger): 75.2% | effect on fertilization rate / fertility of cryopreserved C57BL/6J sperm [1]: improved fertilization rate | effect on fertilization rate / fertility of cryopreserved C57BL/6J sperm ([1]; listed as monothioglycerol): enhances the fertility

From US8420307B2, “Sperm cryoprotective media” (The Jackson Laboratory, priority 2006, dated 2013)
